Patent US10165776B2, “Substituted pyrazolylpyrazole derivative and use of same as herbicide” (KYOYU AGRI CO., LTD., priority 2015, dated 2019)

Each compound was assayed on Chenopodium album (assay: Farming soil treatment test). Details: 5 g a.i./10 a; soil surface spray prior to weed growth; 30 days at 30° C.
Assay type: in vivo
Experimental: (§1) Field soil was filled into a 1/6000 are pot followed by seeding with Digitaria ciliaris, Chenopodium album and Amaranthus retroflexus and covering with soil. Wettable powders of compounds of formula (I) shown in Table 1 prepared in compliance with the preparation examples were diluted with water to the prescribed amount of chemical and uniformly sprayed onto each soil surface layer using 100 liters of sprayed water per 10 are prior to weed growth following seeding. After treating for 30 days in a glass greenhouse at an average atmospheric temperature of 30° C., the herbicidal efficacy thereof was investigated. Evaluation of herbicidal efficacy was carried out in the same manner as the above-mentioned Test Example 1.

SMILES	herbicidal efficacy, Chenopodium album
N#Cc1cnn(-c2nn3c(c2Cl)CCCC3)c1NC(=O)c1ccccc1 [Control agent 4.192, reference compound]	2 (2: 20% to less than 30%)
N#Cc1cnn(-c2nn3c(c2Cl)CCCC3)c1NC(=O)Cc1ccccc1 [Compound 3]	9 (9: 90% to less than 100%)

Same assay, conditions: 10 g a.i./10 a; soil surface spray prior to weed growth; 30 days at 30° C.

SMILES	herbicidal efficacy, Chenopodium album
N#Cc1cnn(-c2nn3c(c2Cl)CCCC3)c1NC(=O)c1ccccc1 [Control agent 4.192, reference compound]	3 (3: 30% to less than 40%)
N#Cc1cnn(-c2nn3c(c2Cl)CCCC3)c1NC(=O)Cc1ccccc1 [Compound 3]	10 (10: 100%)

What follows are compounds tested on Amaranthus retroflexus (assay: Farming soil treatment test). Details: 5 g a.i./10 a; soil surface spray prior to weed growth; 30 days at 30° C.
Assay type: in vivo
Experimental: as §1

SMILES	herbicidal efficacy, Amaranthus retroflexus
N#Cc1cnn(-c2nn3c(c2Cl)CCCC3)c1NC(=O)c1ccccc1 [Control agent 4.192, reference compound]	0 (0 (exponent): 0% to less than 10% (growth inhibition rate))
N#Cc1cnn(-c2nn3c(c2Cl)CCCC3)c1NC(=O)Cc1ccccc1 [Compound 3]	9 (9: 90% to less than 100%)

Same assay, conditions: 10 g a.i./10 a; soil surface spray prior to weed growth; 30 days at 30° C.

SMILES	herbicidal efficacy, Amaranthus retroflexus
N#Cc1cnn(-c2nn3c(c2Cl)CCCC3)c1NC(=O)c1ccccc1 [Control agent 4.192, reference compound]	1 (1: 10% to less than 20%)
N#Cc1cnn(-c2nn3c(c2Cl)CCCC3)c1NC(=O)Cc1ccccc1 [Compound 3]	9 (9: 90% to less than 100%)

These compounds were tested on Digitaria ciliaris (assay: Farming soil treatment test). Details: 5 g a.i./10 a; soil surface spray prior to weed growth; 30 days at 30° C.
Assay type: in vivo
Experimental: as §1

SMILES	herbicidal efficacy, Digitaria ciliaris
N#Cc1cnn(-c2nn3c(c2Cl)CCCC3)c1NC(=O)c1ccccc1 [Control agent 4.192, reference compound]	0 (0 (exponent): 0% to less than 10% (growth inhibition rate))
N#Cc1cnn(-c2nn3c(c2Cl)CCCC3)c1NC(=O)Cc1ccccc1 [Compound 3]	9 (9: 90% to less than 100%)

Same assay, conditions: 10 g a.i./10 a; soil surface spray prior to weed growth; 30 days at 30° C.

SMILES	herbicidal efficacy, Digitaria ciliaris
N#Cc1cnn(-c2nn3c(c2Cl)CCCC3)c1NC(=O)c1ccccc1 [Control agent 4.192, reference compound]	2 (2: 20% to less than 30%)
N#Cc1cnn(-c2nn3c(c2Cl)CCCC3)c1NC(=O)Cc1ccccc1 [Compound 3]	9 (9: 90% to less than 100%)

These compounds were tested on Oryza sativa (assay: Paddy herbicidal activity test, phytotoxicity to transplanted rice). Details: 1 g a.i./10 a; rice transplanted at 2.0 leaf stage; 30 days at 30° C.
Assay type: in vivo
Experimental: (§2) Rice paddy soil was filled into a 1/10000 are pot followed by the addition of suitable amounts of water and chemical fertilizer, kneading, seeding with Echinochloa crus-galli, Monochoria vaginalis and Scirpus juncoides and maintaining in an irrigated state at a water depth of 3 cm. Wettable powders of Target Compound (I) shown in Table 1 prepared in compliance with the preparation examples were diluted with a suitable amount of water, rice plants in the 2.0 leaf stage were transplanted during 3.5 leaf stage of Echinochloa crus-galli, and treated by dropping in chemical in the prescribed amount per 10 are using a pipette. After treating for 30 days in a glass greenhouse at an average atmospheric temperature of 30° C., the herbicidal efficacy thereof was investigated. Evaluation of herbicidal efficacy was carried out by comparing growth inhibition rate (%) with an untreated group, while evaluation of phytotoxicity was carried out by comparing growth inhibition rate (%) with the state of a complete eradication group, and were evaluated at 11 levels indicated below.

SMILES	phytotoxicity, Oryza sativa
N#Cc1cnn(-c2nn3c(c2Cl)CCCC3)c1NC(=O)c1ccccc1 [Control agent 4.192, reference compound]	1 (1: 10% to less than 20%)
N#Cc1cnn(-c2nn3c(c2Cl)CCCC3)c1NC(=O)Cc1ccccc1 [Compound 3]	0 (0 (exponent): 0% to less than 10% (growth inhibition rate))

Same assay, conditions: 5 g a.i./10 a; rice transplanted at 2.0 leaf stage; 30 days at 30° C.

SMILES	phytotoxicity, Oryza sativa
N#Cc1cnn(-c2nn3c(c2Cl)CCCC3)c1NC(=O)c1ccccc1 [Control agent 4.192, reference compound]	1 (1: 10% to less than 20%)
N#Cc1cnn(-c2nn3c(c2Cl)CCCC3)c1NC(=O)Cc1ccccc1 [Compound 3]	1 (1: 10% to less than 20%)

What follows are compounds tested on Monochoria vaginalis (assay: Paddy herbicidal activity test). Details: 1 g a.i./10 a; irrigated pot, treated at 3.5 leaf stage of Echinochloa crus-galli; 30 days at 30° C.
Assay type: in vivo
Experimental: as §2

SMILES	herbicidal efficacy, Monochoria vaginalis
N#Cc1cnn(-c2nn3c(c2Cl)CCCC3)c1NC(=O)c1ccccc1 [Control agent 4.192, reference compound]	1 (1: 10% to less than 20%)
N#Cc1cnn(-c2nn3c(c2Cl)CCCC3)c1NC(=O)Cc1ccccc1 [Compound 3]	9 (9: 90% to less than 100%)

Same assay, conditions: 5 g a.i./10 a; irrigated pot, treated at 3.5 leaf stage of Echinochloa crus-galli; 30 days at 30° C.

SMILES	herbicidal efficacy, Monochoria vaginalis
N#Cc1cnn(-c2nn3c(c2Cl)CCCC3)c1NC(=O)c1ccccc1 [Control agent 4.192, reference compound]	2 (2: 20% to less than 30%)
N#Cc1cnn(-c2nn3c(c2Cl)CCCC3)c1NC(=O)Cc1ccccc1 [Compound 3]	10 (10: 100%)

The compounds below were run on Echinochloa crus-galli (assay: Paddy herbicidal activity test). Details: 1 g a.i./10 a; irrigated pot, treated at 3.5 leaf stage of Echinochloa crus-galli; 30 days at 30° C.
Assay type: in vivo
Experimental: as §2

SMILES	herbicidal efficacy, Echinochloa crus-galli
N#Cc1cnn(-c2nn3c(c2Cl)CCCC3)c1NC(=O)c1ccccc1 [Control agent 4.192, reference compound]	4 (4: 40% to less than 50%)
N#Cc1cnn(-c2nn3c(c2Cl)CCCC3)c1NC(=O)Cc1ccccc1 [Compound 3]	9 (9: 90% to less than 100%)

Same assay, conditions: 5 g a.i./10 a; irrigated pot, treated at 3.5 leaf stage of Echinochloa crus-galli; 30 days at 30° C.

SMILES	herbicidal efficacy, Echinochloa crus-galli
N#Cc1cnn(-c2nn3c(c2Cl)CCCC3)c1NC(=O)c1ccccc1 [Control agent 4.192, reference compound]	4 (4: 40% to less than 50%)
N#Cc1cnn(-c2nn3c(c2Cl)CCCC3)c1NC(=O)Cc1ccccc1 [Compound 3]	10 (10: 100%)

These compounds were tested on Scirpus juncoides (assay: Paddy herbicidal activity test). Details: 1 g a.i./10 a; irrigated pot, treated at 3.5 leaf stage of Echinochloa crus-galli; 30 days at 30° C.
Assay type: in vivo
Experimental: as §2

SMILES	herbicidal efficacy, Scirpus juncoides
N#Cc1cnn(-c2nn3c(c2Cl)CCCC3)c1NC(=O)c1ccccc1 [Control agent 4.192, reference compound]	3 (3: 30% to less than 40%)
N#Cc1cnn(-c2nn3c(c2Cl)CCCC3)c1NC(=O)Cc1ccccc1 [Compound 3]	9 (9: 90% to less than 100%)

Same assay, conditions: 5 g a.i./10 a; irrigated pot, treated at 3.5 leaf stage of Echinochloa crus-galli; 30 days at 30° C.

SMILES	herbicidal efficacy, Scirpus juncoides
N#Cc1cnn(-c2nn3c(c2Cl)CCCC3)c1NC(=O)c1ccccc1 [Control agent 4.192, reference compound]	4 (4: 40% to less than 50%)
N#Cc1cnn(-c2nn3c(c2Cl)CCCC3)c1NC(=O)Cc1ccccc1 [Compound 3]	10 (10: 100%)

These compounds were tested on Galinsoga parviflora (assay: Weed foliar treatment test (Test 4, 4.0 to 5.0 leaf stage)). Details: 10 g a.i./10 a; foliar spray at 4.0 to 5.0 leaf stage of Digitaria ciliaris (plant height 10 cm to 15 cm); 20 days at 25° C.
Assay type: in vivo
Experimental: (§3) Field soil was filled into a 1/4500 are pot followed by seeding with Digitaria ciliaris and Galinsoga parviflora, covering with soil and cultivating in a glass greenhouse at an average atmospheric temperature of 25° C. Wettable powders of Target Compound (I) shown in Table 1 prepared in compliance with the preparation examples were diluted with water to the prescribed amount of chemical and uniformly sprayed onto the weeds using 100 liters of sprayed water per 10 are when Digitaria ciliaris had grown to the 4.0 to 5.0 leaf stage (plant height: 10 cm to 15 cm). After treating for 20 days in a glass greenhouse at an average atmospheric temperature of 25° C., the herbicidal efficacy thereof was investigated. Evaluation of herbicidal efficacy was carried out in the same manner as the above-mentioned Test Example 1.

SMILES	herbicidal efficacy, Galinsoga parviflora
N#Cc1cnn(-c2nn3c(c2Cl)CCCC3)c1NC(=O)c1ccccc1 [Control agent 4.192, reference compound]	2 (2: 20% to less than 30%)
N#Cc1cnn(-c2nn3c(c2Cl)CCCC3)c1NC(=O)Cc1ccccc1 [Compound 3]	10 (10: 100%)

These compounds were tested on Digitaria ciliaris in the same assay as above. Details: 10 g a.i./10 a; foliar spray at 4.0 to 5.0 leaf stage of Digitaria ciliaris (plant height 10 cm to 15 cm); 20 days at 25° C.
Assay type: in vivo
Experimental: as §3

SMILES	herbicidal efficacy, Digitaria ciliaris
N#Cc1cnn(-c2nn3c(c2Cl)CCCC3)c1NC(=O)c1ccccc1 [Control agent 4.192, reference compound]	0 (0 (exponent): 0% to less than 10% (growth inhibition rate))
N#Cc1cnn(-c2nn3c(c2Cl)CCCC3)c1NC(=O)Cc1ccccc1 [Compound 3]	10 (10: 100%)

What follows are compounds tested on Chenopodium album (assay: Weed foliar treatment test (Test 3, 1.0 to 2.0 leaf stage)). Details: 5 g a.i./10 a; foliar spray at 1.0 to 2.0 leaf stage of Digitaria ciliaris; 3 weeks at 25° C.
Assay type: in vivo
Experimental: (§4) Soil was filled into a 1/6000 are pot followed by seeding with Digitaria ciliaris, Chenopodium album and Amaranthus retroflexus, covering with soil, and cultivating in a glass greenhouse at an average atmospheric temperature of 25° C. Wettable powders of Target Compound (I) shown in Table 1 prepared in compliance with the preparation examples were diluted with water to the prescribed amount of chemical and uniformly sprayed onto the weeds using 150 liters of sprayed water per 10 are when Digitaria ciliaris had grown to the 1.0 to 2.0 leaf stage. After treating for 3 weeks in a glass greenhouse at an average atmospheric temperature of 25° C., the herbicidal efficacy thereof was investigated. Evaluation of herbicidal efficacy was carried out in the same manner as the above-mentioned Test Example 1.

SMILES	herbicidal efficacy, Chenopodium album
N#Cc1cnn(-c2nn3c(c2Cl)CCCC3)c1NC(=O)c1ccccc1 [Control agent 4.192, reference compound]	4 (4: 40% to less than 50%)
N#Cc1cnn(-c2nn3c(c2Cl)CCCC3)c1NC(=O)Cc1ccccc1 [Compound 3]	10 (10: 100%)

Same assay, conditions: 10 g a.i./10 a; foliar spray at 1.0 to 2.0 leaf stage of Digitaria ciliaris; 3 weeks at 25° C.

SMILES	herbicidal efficacy, Chenopodium album
N#Cc1cnn(-c2nn3c(c2Cl)CCCC3)c1NC(=O)c1ccccc1 [Control agent 4.192, reference compound]	5 (5: 50% to less than 60%)
N#Cc1cnn(-c2nn3c(c2Cl)CCCC3)c1NC(=O)Cc1ccccc1 [Compound 3]	10 (10: 100%)

Each compound was assayed on Amaranthus retroflexus in the same assay as above. Details: 5 g a.i./10 a; foliar spray at 1.0 to 2.0 leaf stage of Digitaria ciliaris; 3 weeks at 25° C.
Assay type: in vivo
Experimental: as §4

SMILES	herbicidal efficacy, Amaranthus retroflexus
N#Cc1cnn(-c2nn3c(c2Cl)CCCC3)c1NC(=O)c1ccccc1 [Control agent 4.192, reference compound]	3 (3: 30% to less than 40%)
N#Cc1cnn(-c2nn3c(c2Cl)CCCC3)c1NC(=O)Cc1ccccc1 [Compound 3]	9 (9: 90% to less than 100%)

Same assay, conditions: 10 g a.i./10 a; foliar spray at 1.0 to 2.0 leaf stage of Digitaria ciliaris; 3 weeks at 25° C.

SMILES	herbicidal efficacy, Amaranthus retroflexus
N#Cc1cnn(-c2nn3c(c2Cl)CCCC3)c1NC(=O)c1ccccc1 [Control agent 4.192, reference compound]	4 (4: 40% to less than 50%)
N#Cc1cnn(-c2nn3c(c2Cl)CCCC3)c1NC(=O)Cc1ccccc1 [Compound 3]	10 (10: 100%)

What follows are compounds tested on Digitaria ciliaris in the same assay as above. Details: 5 g a.i./10 a; foliar spray at 1.0 to 2.0 leaf stage of Digitaria ciliaris; 3 weeks at 25° C.
Assay type: in vivo
Experimental: as §4

SMILES	herbicidal efficacy, Digitaria ciliaris
N#Cc1cnn(-c2nn3c(c2Cl)CCCC3)c1NC(=O)c1ccccc1 [Control agent 4.192, reference compound]	1 (1: 10% to less than 20%)
N#Cc1cnn(-c2nn3c(c2Cl)CCCC3)c1NC(=O)Cc1ccccc1 [Compound 3]	10 (10: 100%)

Same assay, conditions: 10 g a.i./10 a; foliar spray at 1.0 to 2.0 leaf stage of Digitaria ciliaris; 3 weeks at 25° C.

SMILES	herbicidal efficacy, Digitaria ciliaris
N#Cc1cnn(-c2nn3c(c2Cl)CCCC3)c1NC(=O)c1ccccc1 [Control agent 4.192, reference compound]	2 (2: 20% to less than 30%)
N#Cc1cnn(-c2nn3c(c2Cl)CCCC3)c1NC(=O)Cc1ccccc1 [Compound 3]	10 (10: 100%)
